Legend:
Format in all cases: functional
[1] = tested on: Equine infectious anemia virus; assay: Antiviral activity against equine infectious anemia virus (EIAV) in deoxygenation condition effected by using beta-carotene at a concentration of 80 uM
[2] = tested on: Equine infectious anemia virus; assay: Antiviral activity against equine infectious anemia virus (EIAV) in deoxygenation condition effected by using beta-carotene at a concentration of 64 uM
[3] = tested on: Equine infectious anemia virus; assay: Antiviral activity against equine infectious anemia virus (EIAV) in deoxygenation condition effected by using beta-carotene at a concentration of 0 uM
[4] = tested on: Equine infectious anemia virus; assay: Antiviral activity against equine infectious anemia virus (EIAV) in hypoxic condition obtained by passing argon gas, after 10 min of illumination, using focal immunoassay
[5] = tested on: Equine infectious anemia virus; assay: Antiviral activity against equine infectious anemia virus (EIAV) in hypoxic condition obtained by passing nitrogen gas, after 0 min of illumination using focal, immunoassay
[6] = tested on: Equine infectious anemia virus; assay: Antiviral activity against equine infectious anemia virus (EIAV) in deoxygenation condition effected by using beta-carotene at a concentration of 32 uM
[7] = tested on: Equine infectious anemia virus; assay: Antiviral activity against equine infectious anemia virus (EIAV) in hypoxic condition obtained by passing nitrogen gas, after 10 min of illumination using focal, immunoassay
[8] = tested on: Equine infectious anemia virus; assay: Antiviral activity against equine infectious anemia virus (EIAV) in oxygenated condition after 10 min of illumination, using focal immunoassay
[9] = tested on: Equine infectious anemia virus; assay: Antiviral activity against equine infectious anemia virus (EIAV) in hypoxic condition obtained by passing argon gas, after 0 min of illumination, using focal immunoassay

With `Cc1cc(O)c2c(=O)c3c(O)cc(O)c4c5c(O)cc(O)c6c(=O)c7c(O)cc(C)c8c1c2c(c34)c(c78)c65` [HYPERICIN] the Infectious virus [1] was 0 ffu ml-1, the Infectious virus [2] was 0 ffu ml-1 and the Infectious virus [3] was 0 ffu ml-1. It also gave an Infectious virus [4] of 225 ffu ml-1, an Infectious virus [5] of 14500 ffu ml-1 and an Infectious virus [6] of 0 ffu ml-1. For the same compound, the Infectious virus [7] was 25 ffu ml-1, the Infectious virus [8] was 0 ffu ml-1 and the Infectious virus [9] was 5975 ffu ml-1.
